Measured values reported in US8936806B2, “Periostin induces proliferation of cardiomyocytes and promotes cardiac regeneration” (Children's Medical Center Corporation, priority 2007, dated 2015).
“Also recorded” adds a separate entry of the source. Like-named read-outs stand apart in the source and are kept apart here.

Legend:
[1] = tested on: primary neonatal rat ventricular cardiomyocytes; test: DNA synthesis, mitosis and cytokinesis in primary neonatal rat ventricular cardiomyocytes; format: cell-based; conditions: for induction of cardiomyocyte DNA synthesis: FIG. 2d, 2e; for inhibition of periostin-stimulated DNA synthesis by integrin blockers: cRGD 10 μM, antibodies 10 μg/mL
From the text: Primary neonatal rat ventricular cardiomyocytes were isolated using the Neomyts kit (Cellutron, Highland Park, N.J.), seeded at a density of 10^5 cells/cm^2 onto gelatin-coated cover slips, stimulated for 3 days, and labeled with BrdU for the terminal 2 days. Primary adult ventricular cardiomyocytes were isolated from male (300 gm) Wistar rats (Charles River Laboratories) and maintained as described (Engel, F. B. et al. p38 MAP kinase inhibition enables proliferation of adult mammalian cardiomyocytes. Genes Dev 19, 1175-87 (2005)). Adult cardiomyocytes were stimulated daily for 9 days and labeled with 30 μM BrdU for the terminal 3 days. Cardiomyocytes were stimulated with periostin (500 ng/mL) and FGF (100 ng/mL). Inhibiting antibodies were added at a concentration of 10 μg/mL, cRGD at 10 μM, U0126 at 10 μM, PD98059 at 1 μM, LY294002 at 10 μM, and Wortmannin at 0.1 μM 30 min prior to stimulation. The vehicle used to dissolve factors or chemicals was added to unstimulated samples, which were then processed together with the test samples.
DNA-synthesis was analyzed by visualization of BrdU uptake and cytokinesis was determined by detection of the cleavage furrow and the midbody with an antibody against aurora B kinase as described (Engel, F. B. et al. p38 MAP kinase inhibition enables proliferation of adult mammalian cardiomyocytes. Genes Dev 19, 1175-87 (2005)). Signals were visualized with secondary antibodies conjugated to Alexa 488, Alexa 546, Alexa 594, and Alexa 647 (Invitrogen). Nuclei were visualized with 4′,6′-diamidino-2-phenylindole (DAPI, Invitrogen). For image acquisition, the value for γ was set at 1 and the lookup table settings were linear.

[2] = tested on: Adult male Sprague-Dawley rats; test: Cardiomyocyte cell cycle activity in vivo after intramyocardial injection; parameters: species or system rat; LVFW CM nuclei: unit not given here
Description: Experiments were performed in accordance with institutional guidelines of Massachusetts General Hospital. Injections and analyses were performed in a blinded fashion. Adult male Sprague-Dawley rats (300 gm, Charles River Laboratories) underwent thoracotomy and received intramyocardial injections of 50 μg of recombinant human periostin consisting of the fas1-4 domains, 50 μg of rat fibronectin, or 100 μL of 100 mM sodium acetate as a control (5 rats per group). The survival rate for this procedure was 80%. Injected periostin was confirmed by detection with a polyclonal antibody directed against human periostin (Abcam) and visualized by immunofluorescence microscopy. Intraperitoneal injections of BrdU (70 μmol/kg body weight) with a tissue half life of 2 hr were given every 48 hr, and rats were sacrificed after the third injection. Horizontal cryosections of 14 μm thickness spaced at 1 mm intervals were analyzed by laser scanning immunofluorescence microscopy. BrdU-positive cardiomyocyte nuclei and cytokineses were quantified on 16-20 sections per heart. Fibrosis and cardiomyocyte cross-sectional area were determined on 5 Masson's Trichrome-stained sections at the level of the injection at 40× magnification and quantified using the Metamorph software package (Molecular Devices Corp., Downingtown, Pa.).

[3] = tested on: primary adult rat ventricular cardiomyocytes; test: DNA synthesis (BrdU uptake, immunofluorescence) in primary adult rat ventricular cardiomyocytes; format: cell-based; parameters: inhibition of periostin-stimulated DNA synthesis by integrin antibodies: dose or concentration left out as unconfirmed; conditions: for inhibition of neuregulin-induced cell-cycle reentry / inhibition of periostin-induced DNA synthesis / cell-cycle reentry by kinase inhibitors: PD98059 1 mM; for inhibition of neuregulin-induced cell-cycle reentry: U0126 10 mM as printed; for inhibition of periostin-induced DNA synthesis / cell-cycle reentry by kinase inhibitors: U0126 10 mM, LY294002 10 mM, SH-6 10 mM, Akt1/2 inhibitor 1 mM [sic]
From the text: Primary neonatal rat ventricular cardiomyocytes were isolated using the Neomyts kit (Cellutron, Highland Park, N.J.), seeded at a density of 10^5 cells/cm^2 onto gelatin-coated cover slips, stimulated for 3 days, and labeled with BrdU for the terminal 2 days. Primary adult ventricular cardiomyocytes were isolated from male (300 gm) Wistar rats (Charles River Laboratories) and maintained as described (Engel, F. B. et al. p38 MAP kinase inhibition enables proliferation of adult mammalian cardiomyocytes. Genes Dev 19, 1175-87 (2005)). Adult cardiomyocytes were stimulated daily for 9 days and labeled with 30 μM BrdU for the terminal 3 days. Cardiomyocytes were stimulated with periostin (500 ng/mL) and FGF (100 ng/mL). […] The vehicle used to dissolve factors or chemicals was added to unstimulated samples, which were then processed together with the test samples. DNA-synthesis was analyzed by visualization of BrdU uptake and cytokinesis was determined by detection of the cleavage furrow and the midbody with an antibody against aurora B kinase as described (Engel, F. B. et al. p38 MAP kinase inhibition enables proliferation of adult mammalian cardiomyocytes. Genes Dev 19, 1175-87 (2005)). Signals were visualized with secondary antibodies conjugated to Alexa 488, Alexa 546, Alexa 594, and Alexa 647 (Invitrogen). […] For image acquisition, the value for γ was set at 1 and the lookup table settings were linear. Primary adult rat ventricular cardiomyocytes were grown on gridded cover slips (Electron Microscopy Services, Ft. Washington, Pa.) and imaged in phase contrast at 10× magnification. Cardiomyocytes were transduced with an adenovirus leading to nuclear expression of histone2B-GFP (Shi, Q. & King, R. W. Nature 437, 1038-42 (2005)) under control of the chicken troponin T promoter ([…]. Am J Physiol Cell Physiol 286, […]-64 (2004)). Nuclei were visualized at 10× magnification with a mercury-arc lamp dimmed to 1.5% with a neutral density filter. […] Images of BrdU-positive cardiomyocytes were matched with the corresponding images from before stimulation. For quantification, differentiated cardiomyocytes were defined as striated rod-shaped structures with length/width ratio>1.5.

[4] = tested on: primary neonatal rat ventricular cardiomyocytes; test: Cardiomyocyte proliferation by cell count (hemocytometer); format: cell-based; conditions: for inhibition of periostin-stimulated proliferation by ERK and PI3-kinase inhibitors: U0126 10 μM, PD98059 1 μM, LY294002 10 μM, Wortmannin 0.1 μM; for inhibition of periostin-stimulated proliferation by integrin blockers: cRGD 10 μM, antibodies 10 μg/mL
Description: To determine cardiomyocyte proliferation, primary neonatal rat ventricular cardiomyocytes were quantified by counting with a hemocytometer after 3 days and 6 days of stimulation. To determine cardiomyocyte survival, primary neonatal rat ventricular cardiomyocytes were pre-treated with 500 ng/mL periostin or buffer for 30 min and then exposed to 0.5 μM doxycycline or 100 ng/mL TNFα for 24 hr and quantified by counting. Corresponding samples were stained with an antibody directed against tropomyosin as a cardiomyocyte marker to control for the percentage of differentiated cardiomyocytes. Apoptotic cardiomyocyte nuclei were determined after 24 hr with the In situ Cell Death Detection Kit (Roche, Indianapolis, Ind.) in combination with staining for troponin I.

[5] = 1 week after intracardiac injection
[6] = U0126 10 μM, PD98059 1 μM, LY294002 10 μM, Wortmannin 0.1 μM

collagen: type 1 rat collagen, extracellular matrix component known to activate integrins
induction of cardiomyocyte DNA synthesis [1]: did not induce DNA synthesis

Fibronectin: Rat fibronectin from Biomedical Technologies; extracellular matrix component [reference compound]
induction of cardiomyocyte DNA synthesis [1]: did not induce DNA synthesis
LVFW BrdU-positive CM nuclei [2, 5]: 0.002 ± 0.0004%
LVFW CM nuclei [2, 5]: 10.7 ± 0.4 10^$$ per heart
LVFW BrdU-positive CM nuclei ([2]; 1 week after intracardiac injection, 3 BrdU injections): 273.6 ± 42.8 per heart
LVFW myocardial volume ([2]; 1 week after intracardiac injection, 50 μg periostin (fas1-4 domains) or 50 μg rat fibronectin): 224 ± 6 mm^3
cardiomyocyte DNA synthesis in vivo ([2]; FIG. 4c): did not increase
cardiomyocyte cytokinesis in vivo ([2]; FIG. 4d): did not increase

N#CC(=C(/N)Sc1ccccc1N)/C(C#N)=C(\N)Sc1ccccc1N [U0126]
inhibition of neuregulin-induced cell-cycle reentry ([3]; differentiated cardiomyocytes): inhibited
inhibition of periostin-induced DNA synthesis / cell-cycle reentry by kinase inhibitors ([3]; differentiated cardiomyocytes): did not reduce; also recorded: did not block
inhibition of periostin-stimulated DNA synthesis by ERK and PI3-kinase inhibitors [1]: inhibited only by blocking Akt activation
inhibition of periostin-stimulated cytokinesis by ERK and PI3-kinase inhibitors [1]: inhibited
inhibition of periostin-stimulated proliferation by ERK and PI3-kinase inhibitors [4]: inhibited

SH-6
inhibition of periostin-induced DNA synthesis / cell-cycle reentry by kinase inhibitors ([3]; differentiated cardiomyocytes): reduced

Cyclic Arg-Gly-Asp [cRGD]
inhibition of periostin-stimulated DNA synthesis by integrin blockers [1]: inhibited; also recorded: blocked
inhibition of periostin-stimulated proliferation by integrin blockers [4]: blocked

integrin αV antibody: integrin αV (RMV-7) blocking antibody, BioLegend
inhibition of periostin-stimulated DNA synthesis by integrin antibodies ([3]; differentiated cardiomyocytes): inhibited
inhibition of periostin-stimulated DNA synthesis by integrin blockers [1]: inhibited
inhibition of periostin-stimulated proliferation by integrin blockers [4]: inhibited

O.O=C(O)C(F)(F)F.O=c1[nH]c2ccccc2n1C1CCN(Cc2ccc(-c3nc4cc5[nH]cnc5cc4nc3-c3ccccc3)cc2)CC1 [Akt1/2 inhibitor]
inhibition of periostin-induced DNA synthesis / cell-cycle reentry by kinase inhibitors ([3]; differentiated cardiomyocytes): reduced

COc1cccc(-c2cc(=O)c3ccccc3o2)c1N [PD98059]
inhibition of neuregulin-induced cell-cycle reentry ([3]; differentiated cardiomyocytes): inhibited
inhibition of periostin-induced DNA synthesis / cell-cycle reentry by kinase inhibitors ([3]; differentiated cardiomyocytes): did not reduce; also recorded: did not block
inhibition of periostin-stimulated DNA synthesis by ERK and PI3-kinase inhibitors [1, 6]: inhibited only by blocking Akt activation
inhibition of periostin-stimulated cytokinesis by ERK and PI3-kinase inhibitors [1, 6]: inhibited
inhibition of periostin-stimulated proliferation by ERK and PI3-kinase inhibitors [4]: inhibited

C[S+]([O-])c1ccc(-c2nc(-c3ccncc3)c(-c3ccc(F)cc3)[nH]2)cc1 (stereo not shown) [SB203580]
effect on periostin-induced cardiomyocyte DNA synthesis when added ([3]; FGF 100 ng/ml, SB203580 5 mM or 10 mM as printed): no additional effect

B1: boiled periostin: boiled periostin used in control experiments to rule out a non-protein impurity (protein, UniProt Q15063 22-836, looked up)
Periostin: NNHYDKILAHSRIRGRDQGPNVCALQQILGTKKKYFSTCKNWYKKSICGQKTTVLYECCPGYMRMEGMKGCPAVLPIDHVYGTLGIVGATTTQRYSDASKLREEIEGKGSFTYFAPSNEAWDNLDSDIRRGLESNVNVELLNALHSHMINKRMLTKDLKNGMIIPSMYNNLGLFINHYPNGVVTVNCARIIHGNQIATNGVVHVIDRVLTQIGTSIQDFIEAEDDLSSFRAAAITSDILEALGRDGHFTLFAPTNEAFEKLPRGVLERIMGDKVASEALMKYHILNTLQCSESIMGGAVFETLEGNTIEIGCDGDSITVNGIKMVNKKDIVTNNGVIHLIDQVLIPDSAKQVIELAGKQQTTFTDLVAQLGLASALRPDGEYTLLAPVNNAFSDDTLSMDQRLLKLILQNHILKVKVGLNELYNGQILETIGGKQLRVFVYRTAVCIENSCMEKGSKQGRNGAIHIFREIIKPAEKSLHEKLKQDKRFSTFLSLLEAADLKELLTQPGDWTLFVPTNDAFKGMTSEEKEILIRDKNALQNIILYHLTPGVFIGKGFEPGVTNILKTTQGSKIFLKEVNDTLLVNELKSKESDIMTTNGVIHVVDKLLYPADTPVGNDQLLEILNKLIKYIQIKFVRGSTFKEIPVTVYTTKIITKVVEPKIKVIEGSLQPIIKTEGPTLTKVKIEGEPEFRLIKEGETITEVIHGEPIIKKYTKIIDGVPVEITEKETREERIITGPEIKYTRISTGGGETEETLKKLLQEEVTKVTKFIEGGDGHLFEDEEIKRLLQGDTPVRKLQANKKVQGSRRRLREGRSQ
modifications: heat-denatured
notes: boiled periostin used in control experiments to rule out a non-protein impurity
activation of the cardiomyocyte cell cycle ([1]; control for non-protein impurity): did not activate

B2: variant consisting of the 4 fas1 domains: periostin derivative consisting of 4 fas1 domains, purified from bacteria, molecular weight of 75 kDa (protein)
chain: NNHYDKILAHSRIRGRDQGPNVCALQQILGTKKKYFSTCKNWYKKSICGQKTTVLYECCPGYMRMEGMKGCPAVLPIDHVYGTLGIVGATTTQRYSDASKLREEIEGKGSFTYFAPSNEAWDNLDSDIRRGLESNVNVELLNALHSHMINKRMLTKDLKNGMIIPSMYNNLGLFINHYPNGVVTVNCARIIHGNQIATNGVVHVIDRVLTQIGTSIQDFIEAEDDLSSFRAAAITSDILEALGRDGHFTLFAPTNEAFEKLPRGVLERFMGDKVASEALMKYHILNTLQCSESIMGGAVFETLEGNTIEIGCDGDSITVNGIKMVNKKDIVTNNGVIHLIDQVLIPDSAKQVIELAGKQQTTFTDLVAQLGLASALRPDGEYTLLAPVNNAFSDDTLSMVQRLLKLILQNHILKVKVGLNELYNGQILETIGGKQLRVFVYRTAVCIENSCMEKGSKQGRNGAIHIFREIIKPAEKSLHEKLKQDKRFSTFLSLLEAADLKELLTQPGDWTLFVPTNDAFKGMTSEEKEILIRDKNALQNIILYHLTPGVFIGKGFEPGVTNILKTTQGSKIFLKEVNDTLLVNELKSKESDIMTTNGVIHVVDKLLYPADTPVGNDQLLEILNKLIKYIQIKFVRGSTFKEIPVTVY
induction of cardiomyocyte DNA synthesis [1]: stimulated DNA synthesis as effectively as FGF
